Consider one molecule from paper PMC2233835 (The Journal of General Physiology, 2001).

For test [1], the system named is ROON-S2. Conditions: mean ± SD, ref Tibbs et al. 1997, Tibbs et al. 1998; cited from earlier work.
For test [2], the target named is T1, X-βR/αC (Bos taurus, UniProt Q00194, A200G/A344S/A378F/A555S/A582V/A614G/C169F/D157S/D193E/D502E/D538A/D577E/D604Q/DEL101-144/DEL91-95/E147F/E148K/E189Q/E196F/E230D/E231L/F201L/F214C/F374V/F533Y/G160D/G591K/I156V/I181L/I182V/I235R/I504V/I530V/I566L/I609E/I611V/INS98[…]/K146T/K150R/K151W/K237N/K239I/K346C/K506R/K518R/K521Q/K554M/K590Q/K596R/K598R/L195F/L199V/L210I/L351F/L548I/M175L/M213T/M580R/M592V/M602R/N161D/N165Y/N610S/N613A/P158Q/P173A/Q599E/Q97T/R232A/R345F/R369K/S192D/S205C/S240R/S350C/S371E/S537G/S540L/S553N/T162I/T171A/T179I/T217L/T364M/T584S/V153G/V154F/V174S/V208I/V215I/V487E/V497T/V534A/Y194N/Y197L).
T1 sequence (Q00194 with tags, fused parts or gaps DEL91-95/Q97T/INS98[…]/DEL101-144/K146T/E147F/E148K/K150R/K151W/V153G/V154F/I156V/D157S/P158Q/G160D/N161D/T162I/N165Y/C169F/T171A/P173A/V174S/M175L/T179I/I181L/I182V/E189Q/S192D/D193E/Y194N/L195F/E196F/Y197L/L199V/A200G/F201L/S205C/V208I/L210I/M213T/F214C/V215I/T217L/E230D/E231L/R232A/I235R/K237N/K239I/S240R/A344S/R345F/K346C/S350C/L351F/T364M/R369K/S371E/F374V/A378F/V487E/V497T/D502E/I504V/K506R/K518R/K521Q/I530V/F533Y/V534A/S537G/D538A/S540L/L548I/S553N/K554M/A555S/I566L/D577E/M580R/A582V/T584S/K590Q/G591K/M592V/K596R/K598R/Q599E/M602R/D604Q/I609E/N610S/I611V/N613A/A614G): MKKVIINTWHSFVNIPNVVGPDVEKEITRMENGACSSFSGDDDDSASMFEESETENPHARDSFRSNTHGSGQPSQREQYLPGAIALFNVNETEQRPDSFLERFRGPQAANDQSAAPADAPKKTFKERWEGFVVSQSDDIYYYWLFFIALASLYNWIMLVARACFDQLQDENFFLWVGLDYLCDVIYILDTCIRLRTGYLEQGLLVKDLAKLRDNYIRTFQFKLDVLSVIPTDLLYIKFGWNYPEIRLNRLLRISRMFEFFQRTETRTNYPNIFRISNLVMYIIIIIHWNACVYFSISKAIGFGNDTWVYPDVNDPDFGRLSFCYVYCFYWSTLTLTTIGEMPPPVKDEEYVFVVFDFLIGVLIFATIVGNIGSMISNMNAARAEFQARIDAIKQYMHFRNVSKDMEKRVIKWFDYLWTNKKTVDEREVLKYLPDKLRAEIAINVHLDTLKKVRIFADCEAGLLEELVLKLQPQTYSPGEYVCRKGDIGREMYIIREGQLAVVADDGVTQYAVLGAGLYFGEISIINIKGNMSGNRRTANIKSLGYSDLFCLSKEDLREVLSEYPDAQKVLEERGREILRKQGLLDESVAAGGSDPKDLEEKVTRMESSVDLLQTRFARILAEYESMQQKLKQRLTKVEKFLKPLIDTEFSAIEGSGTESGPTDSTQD
Nature of the test: Macroscopic current dose–response in inside-out patches from Xenopus oocytes. Type of test: cell-based, chimera of bovine CNG1, catfish CNG2 and rat CNG5.

Test [3] concerns the target T2, X-αR/βC (Bos taurus, UniProt Q00194, A200G/A344S/A378F/A555M/A612E/C169F/D157S/D193E/D538A/D588Q/D604M/DEL101-144/DEL91-95/E147F/E148K/E189Q/E196F/E230D/E231L/F201L/F214C/F374V/G160D/G591A/G605N/I156V/I181L/I182V/I235R/I530V/I609V/I611A/INS98[…]/K146T/K150R/K151W/K237N/K239I/K346C/K506R/K521Q/K551Q/K564R/K590Q/K598R/L195F/L199V/L210I/L351F/L583V/L593M/L606K/M175L/M213T/M592V/M602L/N161D/N165Y/N613A/P158Q/P173A/Q494R/Q599E/Q97T/R232A/R345F/R369K/R512K/S192D/S205C/S240R/S350C/S371E/S537T/S540G/T162I/T171A/T179I/T217L/T364M/T584A/V153G/V154F/V174S/V208I/V215I/V534A/V535L/Y194N/Y197L/Y541C).
T2 sequence (Q00194 with tags, fused parts or gaps DEL91-95/Q97T/INS98[…]/DEL101-144/K146T/E147F/E148K/K150R/K151W/V153G/V154F/I156V/D157S/P158Q/G160D/N161D/T162I/N165Y/C169F/T171A/P173A/V174S/M175L/T179I/I181L/I182V/E189Q/S192D/D193E/Y194N/L195F/E196F/Y197L/L199V/A200G/F201L/S205C/V208I/L210I/M213T/F214C/V215I/T217L/E230D/E231L/R232A/I235R/K237N/K239I/S240R/A344S/R345F/K346C/S350C/L351F/T364M/R369K/S371E/F374V/A378F/Q494R/K506R/R512K/K521Q/I530V/V534A/V535L/S537T/D538A/S540G/Y541C/K551Q/A555M/K564R/L583V/T584A/D588Q/K590Q/G591A/M592V/L593M/K598R/Q599E/M602L/D604M/G605N/L606K/I609V/I611A/A612E/N613A): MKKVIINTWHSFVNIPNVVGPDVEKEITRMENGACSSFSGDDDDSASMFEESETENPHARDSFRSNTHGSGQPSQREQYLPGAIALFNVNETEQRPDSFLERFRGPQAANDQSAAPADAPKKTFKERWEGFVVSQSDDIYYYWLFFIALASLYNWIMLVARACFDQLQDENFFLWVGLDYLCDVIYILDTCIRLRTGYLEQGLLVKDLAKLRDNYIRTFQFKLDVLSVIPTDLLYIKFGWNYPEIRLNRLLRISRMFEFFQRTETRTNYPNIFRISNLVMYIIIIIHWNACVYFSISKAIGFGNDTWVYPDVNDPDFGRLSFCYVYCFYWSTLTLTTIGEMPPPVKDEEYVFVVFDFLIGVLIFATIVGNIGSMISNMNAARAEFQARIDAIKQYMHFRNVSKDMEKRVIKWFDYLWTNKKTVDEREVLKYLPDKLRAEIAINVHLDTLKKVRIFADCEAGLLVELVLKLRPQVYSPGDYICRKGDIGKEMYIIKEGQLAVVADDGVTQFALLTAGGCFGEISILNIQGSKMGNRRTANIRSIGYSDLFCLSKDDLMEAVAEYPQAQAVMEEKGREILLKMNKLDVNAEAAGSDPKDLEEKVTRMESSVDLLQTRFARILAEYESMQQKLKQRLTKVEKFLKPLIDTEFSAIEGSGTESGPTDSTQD
Described as above. The class given is cell-based, chimera of bovine CNG1, catfish CNG2 and rat CNG5.

Test [4] addresses T3, X-α homomeric channels (Bos taurus, UniProt Q00194, A200G/A344S/A378F/A555M/A614G/C169F/D157S/D193E/D538A/D604Q/DEL101-144/DEL91-95/E147F/E148K/E189Q/E196F/E230D/E231L/F201L/F214C/F374V/G160D/G591K/I156V/I181L/I182V/I235R/I530V/I609E/I611V/INS98[…]/K146T/K150R/K151W/K237N/K239I/K346C/K506R/K521Q/K551Q/K564R/K590Q/K596R/K598R/L195F/L199V/L210I/L351F/L583V/M175L/M213T/M592V/M602R/N161D/N165Y/N610S/N613A/P158Q/P173A/Q494R/Q599E/Q97T/R232A/R345F/R369K/R512K/S192D/S205C/S240R/S350C/S371E/S537T/S540G/T162I/T171A/T179I/T217L/T364M/T584A/V153G/V154F/V174S/V208I/V215I/V534A/V535L/Y194N/Y197L/Y541C).
T3 sequence (Q00194 with tags, fused parts or gaps DEL91-95/Q97T/INS98[…]/DEL101-144/K146T/E147F/E148K/K150R/K151W/V153G/V154F/I156V/D157S/P158Q/G160D/N161D/T162I/N165Y/C169F/T171A/P173A/V174S/M175L/T179I/I181L/I182V/E189Q/S192D/D193E/Y194N/L195F/E196F/Y197L/L199V/A200G/F201L/S205C/V208I/L210I/M213T/F214C/V215I/T217L/E230D/E231L/R232A/I235R/K237N/K239I/S240R/A344S/R345F/K346C/S350C/L351F/T364M/R369K/S371E/F374V/A378F/Q494R/K506R/R512K/K521Q/I530V/V534A/V535L/S537T/D538A/S540G/Y541C/K551Q/A555M/K564R/L583V/T584A/K590Q/G591K/M592V/K596R/K598R/Q599E/M602R/D604Q/I609E/N610S/I611V/N613A/A614G): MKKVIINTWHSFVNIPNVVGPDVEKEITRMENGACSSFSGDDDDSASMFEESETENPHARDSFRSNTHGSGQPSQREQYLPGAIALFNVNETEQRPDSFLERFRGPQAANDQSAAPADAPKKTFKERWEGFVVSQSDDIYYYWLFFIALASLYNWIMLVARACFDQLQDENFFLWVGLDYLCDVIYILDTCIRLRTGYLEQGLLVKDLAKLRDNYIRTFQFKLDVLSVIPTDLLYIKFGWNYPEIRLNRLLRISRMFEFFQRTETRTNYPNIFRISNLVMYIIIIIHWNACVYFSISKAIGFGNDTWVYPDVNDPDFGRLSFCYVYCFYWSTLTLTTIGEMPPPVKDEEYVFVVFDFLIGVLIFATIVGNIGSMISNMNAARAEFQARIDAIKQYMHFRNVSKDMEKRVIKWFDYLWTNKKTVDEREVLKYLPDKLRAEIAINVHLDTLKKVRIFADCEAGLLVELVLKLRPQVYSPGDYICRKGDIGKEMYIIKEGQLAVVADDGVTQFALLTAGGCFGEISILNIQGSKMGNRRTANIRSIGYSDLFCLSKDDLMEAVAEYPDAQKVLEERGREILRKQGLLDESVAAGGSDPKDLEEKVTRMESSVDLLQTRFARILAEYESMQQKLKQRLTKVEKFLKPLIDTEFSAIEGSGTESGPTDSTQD
The test is described as above. Type of test: cell-based, chimera of bovine CNG1 and catfish CNG2.

Take `Nc1nc2c(ncn2[C@@H]2O[C@@H]3COP(=O)([O-])O[C@H]3[C@H]2O)c(=O)[nH]1.[Na+]` [cGMP]: the Hill coefficient h in test [1] was 1.89 ± 0.38 (10); in test [2] (one patch (Fig. 6 B2), −100 mV, Hill fit ± SE), 1.95 ± 0.22; in test [3] (−100 mV, composite fit ± SEM, cGMP: excluding data >3 mM), 1.120 ± 0.044. Besides, the figures for the Desensitization result in test [2] and in test [3] were “No” and “Yes”, respectively. Further, the “agonist concentration above which desensitization occurs” value in test [3] (biphasic dose–response curve) was “above 3 mM”. In addition, the “agonist concentration at maximum of steady-state Popen dose–response curve” value in test [4] is ~3 mM.
